In series [1] the test system is patients with pulmonary sarcoidosis. In words: Four-month oral melatonin treatment of patients with pulmonary sarcoidosis. The class given is in vivo. The protocol: (§1) Treatment with melatonin was administered to ambulant patients with various forms of systemic scleroderma, in various stages of the disease, and to patients with sarcoidosis.
(§2) The patients and methods were as follows:
(§3) Ten patients with systemic scleroderma in an active phase and four patients with pulmonary sarcoidosis were selected.
The diagnosis was made on the basis of histological tests performed on biopsy samples, the BAL for the T-lymphocyte count and scintigraphy with gallium-67. Overall lung function tests, a chest X-ray and numerous laboratory tests (ACE, blood calcium, urinary calcium, ESR, etc.) were also performed.
The effects of the treatment were evaluated monthly on the basis of any changes in lung function and ACE levels and at the end of the four-month period on the basis of any changes in the radiological findings.
(§4) When the clinical evaluation had been completed and after all the laboratory tests had been performed, the patients with systemic scleroderma and sarcoidosis received in a daily dose of 20 mg taken by mouth as a single dose between 18.00 and 20.00 hours. This timing was chosen with the aim of interfering as little as possible with the circadian rhythm of endogenous melatonin secretion.
(§5) The other patients with systemic scleroderma and those with sarcoidosis received only melatonin.

In series [2] the test system is patients with Parkinson's disease. Particulars: cited from earlier work.
Series [3] has as its system patients with systemic scleroderma. In kind it is in vivo. The protocol: as §1, §2, §3
The clinical characteristics of the patients with systemic scleroderma and the level of activity and severity of the disease were assessed with the aid of a skin score (cf. annexe) and information obtained from lung function tests, a chest X-ray, pulmonary CAT and numerous laboratory tests (antinuclear antibodies (A), A to the extractable nuclear antigen Scl-70, antinucleolar A, anti-DNA A, antimicrosome A, anticentromeric A, ESR, ACE, CRP, gamma globulins).
To assess the effects of the treatment, the skin-score, ESR, ACE, CRP were determined monthly, the lung function tests were performed every 2 months, and chest X-ray and/or thoracic CAT carried out at the end of a 4-month course of treatment.
as §4
The clinical investigations and laboratory tests performed at the start of the combined treatment therefore served both as a control on the treatment with hydroxychloroquine and to provide the base values for the tests performed during the treatment with melatonin.
as §5

Series [4] concerns cancer patients. Particulars: cancer patients no longer responsive to conventional therapies; cited from earlier work.
The mark [5] stands for this setting: 20 mg melatonin per day for four months.

In the case of `COc1ccc2[nH]cc(CCNC(C)=O)c2c1` [melatonin, 5-methoxy-N-acetyltryptamine], in series [1] (end of the four-month course), the “radiological investigation (changes affecting the hilum and the pulmonary parenchyma)” value is reported as “definitive reduction”. In addition, the lung function tests entry is “the findings in three patients had returned to normal and the fourth patient showed marked improvement” in series [1] (end of the four-month course, four patients); “significant improvement in nine of the ten patients” in series [3] (20 mg melatonin per day for four months, ten patients). Moreover, in series [1] (end of the four-month course, on average), the “fall of BAL lymphocyte count” value is reported as 70%. In addition, the ACE result in series [1] (monthly determination, 20 mg per day, all cases (FIG.2)) is recorded as “the values gradually returned to normal”. The demonstrable advantages entry in series [2] (daily doses of up to 6 g) is reported as “no demonstrable advantages”. Further, the adverse effects entry in series [2] (human, in vivo) was “no adverse effects”. The “CRP or gamma globulin values” in series [3] (setting [5]) is on record as “No significant changes”. In addition, the subjective respiratory disturbances entry in series [3] (setting [5]) was “marked subjective reduction”. In addition, in series [3] (20 mg melatonin per day for four months, ten patients (FIG.1)), the skin score entry is “highly positive results”. Further, the “chest X-ray” value in series [3] (after 4 months of treatment, all patients) was “No significant changes were found in any of the patients”. For the same molecule, in series [3] (throughout the course of treatment, 20 mg per day), the ESR result was “It was not possible to demonstrate that the hormone treatment had an effect on this parameter”. In addition, the “patients' general condition and disease course” value in series [4] is “the patients' general condition showed improvement and the disease was temporarily stabilized”.

(Values after patent publication EP0605371A1 (priority 1992, dated 1994).)
